test: Human HepG2 cell viability assay in 384 well format; assay type: toxicity, cell-based; design: dose 125 nL, time 70.5 hour; concentration not given beside the values; conditions: HepG2 cells, read-out: Inhibition

Going from `Cc1cnn(CC2CCCN2Cc2noc(C3CC3)n2)c1` (stereo not given) to `Cc1ccccc1NC(=O)N1CCN(Cc2noc(C3CC3)n2)CC1`, the cytotoxicity at 70.5 h rises from 0.359% to 1.73%.

First: COc1c(C2CCCN2Cc2nc(C)c(C)o2)c(C)nn1C (stereo not given)
Second: COc1c(C2CCCN2C(=O)Cc2c(C)noc2C)c(C)nn1C (stereo not given)
The cytotoxicity at 70.5 h of the first is lower: -7.8% for the first, 11% for the second.

Going from `Cc1cnn(CCNCc2ccccc2OCc2ccncc2)c1` to `Cc1cnn(CCNCc2ccccc2OCc2ccccn2)c1`, the cytotoxicity at 70.5 h falls from 3.09% to -0.163%.

First: Cc1nc(C)n(CC2CCCN2Cc2nc3ccccc3c(=O)[nH]2)n1 (stereo not given)
Second: Cc1nc(C)n(CC2CCCN2Cc2nc3ccccc3s2)n1 (stereo not given)
The cytotoxicity at 70.5 h of the first is higher: -1.61% for the first, -5.56% for the second.

Going from `Cc1nc(C(=O)N2CCCC2c2c(C)nn(C)c2C)cs1` (stereo not given) to `Cc1csc(NC(=O)CN2CCC(c3ccnn3CCO)CC2)n1`, the cytotoxicity at 70.5 h rises from -3.9% to 33.6%.

Compared with `Cc1nn(C)c(N(C)C)c1CNCc1ccccc1Cn1ccnc1`, `COc1ccc(S(=O)(=O)NCc2cccnc2N(C)C)cc1F` is higher in cytotoxicity at 70.5 h: -1.82% for the first, 40.3% for the second.

Going from `Cc1ccccc1OCCN1CCn2c(C)nnc2C1` to `Cc1cc(C)cc(OCCN2CCn3c(C)nnc3C2)c1`, the cytotoxicity at 70.5 h falls from 25.1% to -4.98%.

Going from `CCn1ncc2c1CCCC2NCc1cccc2c1OCO2` (stereo not given) to `Cn1ncc2c1CCCC2NCc1cccc2c1OCCCO2` (stereo not given), the cytotoxicity at 70.5 h falls from 15.8% to 0.963%.

Compared with `Cc1ncccc1CNCC1CCN(CC(C)O)CC1` (stereo not given), `Cc1ccc(CNCC2CCN(CC(O)c3ccccc3)CC2)o1` (stereo not given) is higher in cytotoxicity at 70.5 h: -4.39% for the first, -1.65% for the second.

Going from `CC(C)Oc1ncccc1CNC(=O)Nc1ccccn1` to `CC(C)c1n[nH]c(C(=O)Nc2ccncc2)c1Br`, the cytotoxicity at 70.5 h rises from 0.773% to 3.41%.

First: CC(NCc1ccccc1Cl)c1ccc(OCC(=O)NC2CC2)cc1 (stereo not given)
Second: Cc1cccc(CNC(C)c2ccc(OCC(=O)NC3CC3)cc2)c1 (stereo not given)
The cytotoxicity at 70.5 h of the first is higher: 0.704% for the first, -0.442% for the second.

Going from `CCN(Cc1nc2c(cnn2C)c(=O)[nH]1)c1ccccc1` to `CN1CCOC(CNCc2nc(-c3ccccc3)cs2)C1` (stereo not given), the cytotoxicity at 70.5 h rises from 3.68% to 9.31%.

First: Cc1cc(C)n(CC2CN(c3ncnc4[nH]ccc34)CCO2)n1 (stereo not given)
Second: Cc1cnn(CC2CN(c3ncnc4[nH]ccc34)CCO2)c1 (stereo not given)
The cytotoxicity at 70.5 h of the first is lower: 1.04% for the first, 1.56% for the second.

Compared with `CC(Cn1cccn1)NCc1ccc(OCc2ccncc2)cc1` (stereo not given), `Cc1cnn(CC(C)NCc2ccc(OCC(N)=O)cc2)c1` (stereo not given) is higher in cytotoxicity at 70.5 h: 3.19% for the first, 11.6% for the second.

Going from `O=C(Nc1ccccc1)N1CCN(Cc2noc(C3CC3)n2)CC1` to `COc1cccc(CNC(=O)N2CCN(Cc3cc(C)on3)CC2)c1`, the cytotoxicity at 70.5 h falls from -7.64% to -20.5%.

Compared with `CCn1ncc2c1CCCC2NCc1ccc2c(c1)CCO2` (stereo not given), `Cc1nc(CN2CCCC(NCCc3ccccc3Cl)C2)no1` (stereo not given) is lower in cytotoxicity at 70.5 h: -0.486% for the first, -6.15% for the second.

Going from `COc1ccc(COCC(O)CNC(=O)c2cccc(OC)c2)cc1` (stereo not given) to `COc1cccc(C(=O)N2CCC(Nc3ccc(C)nn3)CC2)c1`, the cytotoxicity at 70.5 h rises from -0.933% to 1.25%.

First: CCc1n[nH]c(C2CN(CCCS(C)(=O)=O)CCO2)n1 (stereo not given)
Second: CCc1n[nH]c(C2CN(CCS(C)(=O)=O)CCO2)n1 (stereo not given)
The cytotoxicity at 70.5 h of the first is higher: 32.1% for the first, -0.712% for the second.

First: CC(C)n1ccnc1CN1CCCN(C(=O)CC2CCCO2)CC1 (stereo not given)
Second: COCCC(=O)N1CCCN(Cc2nccn2C(C)C)CC1
The cytotoxicity at 70.5 h of the first is higher: 23.9% for the first, -1.06% for the second.

Compared with `FC(F)(F)COCCN1CCOC(Cn2cccn2)C1` (stereo not given), `CC(C)(C)c1nnc(CN2CCOC(Cn3cccn3)C2)o1` (stereo not given) is higher in cytotoxicity at 70.5 h: -0.0607% for the first, 5.79% for the second.

Compared with `CC(C)(C)c1nc(CN(Cc2cccs2)CC2CCCO2)no1` (stereo not given), `CN1CCOC(CNCc2coc(-c3cccs3)n2)C1` (stereo not given) is higher in cytotoxicity at 70.5 h: 3.58% for the first, 27.5% for the second.

First: Cn1ccnc1CN1CCCN(C(=O)COC2CCCC2)CC1
Second: CCN1CCN(C2CCN(Cc3cc(C)on3)CC2)C1=O
The cytotoxicity at 70.5 h of the first is lower: -2.98% for the first, 49.1% for the second.

First: CCc1nc(CN2CCCN(c3nn4cc(C)nc4s3)CC2)no1
Second: Cc1cnn(CCC(=O)N2CCN(c3nc(C)cs3)CC2)c1
The cytotoxicity at 70.5 h of the first is lower: 23.9% for the first, 30.3% for the second.

First: O=C(Cc1csc(-c2ccco2)n1)N1CCSCC1
Second: CC(C)N1CCN(C(=O)Cc2csc(-c3ccco3)n2)CC1
The cytotoxicity at 70.5 h of the first is lower: -11.7% for the first, -0.696% for the second.

First: Cc1ccc(C(=O)NC2CCN(Cc3cccc4c3OCCO4)CC2)s1
Second: Cc1ccc(F)c(C(=O)N2CCC(Nc3ccc(C)nn3)CC2)c1
The cytotoxicity at 70.5 h of the first is lower: -2.59% for the first, -2.35% for the second.

Going from `Cc1cccc(C2(C(=O)NCC3CCN(CC(F)(F)F)C3)CCC2)c1` (stereo not given) to `Cc1cccc(C2(CNC(=O)CCNS(C)(=O)=O)CCCC2)c1`, the cytotoxicity at 70.5 h rises from -1.39% to 27%.

Compared with `CNC(=O)C1CCN(C(=O)NCCc2ccc(Cl)s2)CC1`, `O=C(CCc1ccc(Cl)s1)N1CCCC(n2cncn2)C1` (stereo not given) is higher in cytotoxicity at 70.5 h: -5.01% for the first, 11.3% for the second.

First: c1ccc(-n2ccc(CN3CCCC(Cn4cncn4)C3)n2)cc1 (stereo not given)
Second: c1cnn(-c2ccc(CN3CCOC(Cn4cncn4)C3)cc2)c1 (stereo not given)
The cytotoxicity at 70.5 h of the first is lower: 0.226% for the first, 18.2% for the second.

Compared with `CCn1c(C)cc(C(=O)N2CCc3nnc(N)cc3C2)c1C`, `Nc1cc2c(nn1)CCN(C(=O)CC1CCCC1)C2` is higher in cytotoxicity at 70.5 h: -0.105% for the first, 3.78% for the second.

Compared with `O=C(O)c1cc(S(=O)(=O)Nc2ccc(F)cc2Cl)cc2c1OCCO2`, `O=C(O)c1cc(S(=O)(=O)Nc2ccc(F)c(Cl)c2)cc2c1OCCO2` is higher in cytotoxicity at 70.5 h: 0.949% for the first, 3.36% for the second.

Compared with `O=C(O)c1cc(S(=O)(=O)Nc2cc(F)cc(F)c2)cc2c1OCCO2`, `O=C1C(NS(=O)(=O)c2cc(F)cc(F)c2)CCN1Cc1ccccc1` (stereo not given) is higher in cytotoxicity at 70.5 h: -4.5% for the first, 23.4% for the second.

First: c1cnnc(N2CCCC2CNc2ncnc3ccsc23)c1 (stereo not given)
Second: CN(Cc1nc(-c2ccco2)no1)C1CCCN(c2cccnn2)C1 (stereo not given)
The cytotoxicity at 70.5 h of the first is higher: -1.29% for the first, -14.4% for the second.

Going from `CNC(=O)CS(=O)(=O)Cc1cc(Cl)c2c(c1)OCCCO2` to `COc1ccc(C2=CCN(C(=O)CN(C)Cc3ccoc3)CC2)cc1`, the cytotoxicity at 70.5 h rises from 25.7% to 49.4%.

Compared with `c1cnn(CC2CN(Cc3ccc(-n4ccnc4)cc3)CCO2)c1` (stereo not given), `CN(Cc1ccc(F)cc1)C(=O)CN1CCCC(Cn2cncn2)C1` (stereo not given) is lower in cytotoxicity at 70.5 h: 12.9% for the first, 3.89% for the second.

First: CCOc1ccnc(N2CCN(C(=O)c3cc(Cl)c[nH]3)CC2)n1
Second: CCc1n[nH]c(C2CN(C(=O)c3cnc(C)s3)CCO2)n1 (stereo not given)
The cytotoxicity at 70.5 h of the first is higher: 25.8% for the first, 23.1% for the second.

Compared with `O=C(CN1CCCCC1Cn1cncn1)NCCC1=CCCCC1` (stereo not given), `O=C(CN1CCCCC1Cn1cncn1)NCc1ccccn1` (stereo not given) is lower in cytotoxicity at 70.5 h: 32% for the first, -4.27% for the second.

First: CS(=O)(=O)NCCCN1CCCC1Cc1ccccc1 (stereo not given)
Second: CS(=O)(=O)NCCCN1CCCCC1c1cc2ccccc2[nH]1 (stereo not given)
The cytotoxicity at 70.5 h of the first is lower: 4.23% for the first, 33.9% for the second.

Compared with `c1ccc(CN2CCCC2Cn2cncn2)nc1` (stereo not given), `CN(C)CC1CN(c2cnc3ccccc3n2)CCO1` (stereo not given) is higher in cytotoxicity at 70.5 h: 7.22% for the first, 11.3% for the second.

Going from `c1cnn(CCNCc2nnc(C3CC3)o2)c1` to `CC(O)CN1CCN(Cc2nnc(C3CC3)o2)CC1` (stereo not given), the cytotoxicity at 70.5 h falls from 48.9% to -4%.

First: COc1ccc(C(O)CNc2c(C#N)c(=O)n(C)c(=O)n2C)cc1 (stereo not given)
Second: COc1cc(C(=O)Nc2nc(C)no2)ccc1C
The cytotoxicity at 70.5 h of the first is lower: 3.78% for the first, 36.1% for the second.

Compared with `CCCNC(=O)C1CCN(Cc2csc(C(C)(C)C)n2)CC1`, `CCCNC(=O)CN1CCN(Cc2csc(C(C)(C)C)n2)CC1` is higher in cytotoxicity at 70.5 h: -9.45% for the first, 4.04% for the second.

First: Cc1cc(CN2CCN(C(c3ccccc3)c3ccccc3)CC2)no1
Second: Cc1noc(C(C)C)c1C(=O)NCC(c1ccsc1)N(C)C (stereo not given)
The cytotoxicity at 70.5 h of the first is lower: 1.19% for the first, 4.78% for the second.

In the case of `Cc1nc(CSCCC(=O)NCc2cccnc2N(C)C)cs1`, the cytotoxicity at 70.5 h is reported as -13.6%.

Reference: ChEMBL document CHEMBL3507680, “University of Dundee, Gates Library screen for HepG2 cell viability”
